Test system: psoriasis patients
Experiment: Human Psoriasis Study of WP1220 and CABE (pilot study)
Assay type: in vivo
Conditions: topical treatment; psoriasis patients not responsive to current standard therapies
Experimental: Human Psoriasis Study of WP1220 and CABE—The compounds WP1220 and CABE were tested in a pilot study of psoriasis patients who were not responsive to current standard therapies.

O=C(/C=C/c1ccc(O)c(O)c1)OCc1ccccc1 [CABE, (E)-Benzyl 3-(3,4-dihydroxyphenyl)acrylate]
patients responded with substantial improvement or complete resolution of psoratic lesions: five out of seven

C[C@H](NC(=O)/C(C#N)=C/C=C/c1cccc(Br)n1)c1ccccc1 [WP1220, (2E,4E)-5-(6-bromopyridin-2-yl)-2-cyano-N—((S)-1-phenylethyl)penta-2,4-dienamide]
patients responded with substantial improvement or complete resolution of psoratic lesions: seven out of seven
